In the NIST ThermoML archive (doi:10.1021/je060271a):

Conditions: 343.15 K, Liquid, Vibrating tube method

CCCCCCCC(=O)OCC(COC(=O)CCCCCCC)(COC(=O)CCCCCCC)COC(=O)CCCCCCC [pentaerythritol tetraoctanoate]
Conditions | mass density [kg/m3]
665.9 kPa | 926.5
687.8 kPa | 926.6
706.6 kPa | 926.4
730 kPa | 926.5
755.6 kPa | 926.6
778.5 kPa | 926.5
802.8 kPa | 926.6
832.2 kPa | 926.4
862.6 kPa | 926.6
881.1 kPa | 926.6
902.3 kPa | 926.7
920.9 kPa | 926.6
940.4 kPa | 926.6
964.7 kPa | 926.7
985.7 kPa | 926.6
1011.4 kPa | 926.8
1034.9 kPa | 926.7
1063.7 kPa | 926.8
1088.9 kPa | 926.8
1119.9 kPa | 926.8
1147.2 kPa | 926.8
1182.1 kPa | 926.7
1218.2 kPa | 926.8
1249.3 kPa | 926.9
1282.5 kPa | 926.8
1323.6 kPa | 927.1
1359.7 kPa | 927
1406.5 kPa | 926.9
1447.6 kPa | 927
1490.5 kPa | 927
1543.8 kPa | 927.1
1590.8 kPa | 927.1
1650.5 kPa | 927.1
1702.4 kPa | 927.2
1763.5 kPa | 927.2
1794.1 kPa | 927.3
1881.2 kPa | 927.4
1905.6 kPa | 927.4
1913.3 kPa | 927.3
1919.7 kPa | 927.4
1926.3 kPa | 927.3
1934.1 kPa | 927.4
1941 kPa | 927.5
1952.7 kPa | 927.5
1970.2 kPa | 927.3
2032.8 kPa | 927.4
2121.2 kPa | 927.7
2203.7 kPa | 927.5
2331.4 kPa | 927.7
2366.8 kPa | 927.7
2379.6 kPa | 927.9
2393.5 kPa | 927.8
2403.9 kPa | 927.9
2415.5 kPa | 927.8
2424.6 kPa | 927.8
2434.6 kPa | 927.8
2446.8 kPa | 927.8
2457.7 kPa | 927.7
2468.6 kPa | 927.9
2480.2 kPa | 927.8
2493.9 kPa | 927.9
2505.4 kPa | 927.9
2519.4 kPa | 927.9
2531.1 kPa | 927.9
2543 kPa | 927.9
2555.2 kPa | 927.8
2569.2 kPa | 927.9
2581.3 kPa | 928
2593.5 kPa | 927.9
2608.2 kPa | 928
2620.9 kPa | 927.9
2633.4 kPa | 928.1
2646.4 kPa | 927.9
2659 kPa | 928
2674.6 kPa | 928
2687.8 kPa | 928
2700.8 kPa | 928
2713.8 kPa | 927.9
2729.6 kPa | 928.1
2743.3 kPa | 928
2756.7 kPa | 927.9
2773 kPa | 927.9
2786.3 kPa | 928.1
2800.4 kPa | 928
2814.8 kPa | 928.1
2830 kPa | 928.1
2846.9 kPa | 928.2
2861.3 kPa | 928.1
2875.3 kPa | 928.1
2892.3 kPa | 928.1
2907 kPa | 928.1
2921.6 kPa | 928.2
2936.8 kPa | 928.1
2955 kPa | 928.2
2969.8 kPa | 928.1
2988.2 kPa | 928.2
3003.6 kPa | 928.1
3019.4 kPa | 928.3
3035.5 kPa | 928.4
3053.7 kPa | 928.2
3070.2 kPa | 928.3
3085.9 kPa | 928.2
3102.6 kPa | 928.4
3121.8 kPa | 928.3
3138.3 kPa | 928.4
3154.9 kPa | 928.4
3175.2 kPa | 928.3
3191.8 kPa | 928.3
3209 kPa | 928.3
3229.6 kPa | 928.4
3247 kPa | 928.4
3264.6 kPa | 928.4
3285.8 kPa | 928.4
3303.6 kPa | 928.5
3321.5 kPa | 928.5
3343 kPa | 928.5
3361.5 kPa | 928.6
3379.9 kPa | 928.5
3398.8 kPa | 928.5
3421.3 kPa | 928.5
3440 kPa | 928.4
3463.2 kPa | 928.4
3482.8 kPa | 928.5
3502.4 kPa | 928.4
3522.3 kPa | 928.7
3542.4 kPa | 928.6
3566.7 kPa | 928.7
3583.3 kPa | 928.6
3608.1 kPa | 928.7
3632.7 kPa | 928.7
3653.7 kPa | 928.6
3674.8 kPa | 928.8
3695.9 kPa | 928.7
3721.9 kPa | 928.7
3743.4 kPa | 928.8
3765.8 kPa | 928.7
3792.8 kPa | 928.8
3815.3 kPa | 928.8
3838 kPa | 928.8
3861 kPa | 928.9
3888.6 kPa | 929
3911.4 kPa | 929
3935 kPa | 928.8
3959.2 kPa | 928.9
3987.5 kPa | 929
4012.2 kPa | 929
4037.5 kPa | 928.9
4064.5 kPa | 929
